Where a SMILES comes first, the peptide text is derived from it. Bridges are numbered along the chain shown (N, C = ends). [ ]: non-standard residue; d: D form. The star is where a group is joined. hPhe(3,5-F2-4-CF3) = N[C@@H](CCc1cc(F)c(C(F)(F)F)c(F)c1)C(=O)O; hPhe(3-Cl-4-CF3) = N[C@@H](CCc1ccc(C(F)(F)F)c(Cl)c1)C(=O)O; NPrPhe(4-CF3) = CCCN[C@@H](Cc1ccc(C(F)(F)F)cc1)C(=O)O; NMeGly(cPent) = CN[C@H](C(=O)O)C1CCCC1; Gly(cPent) = N[C@H](C(=O)O)C1CCCC1; NMeD = CN[C@@H](CC(=O)O)C(=O)O; NMeL = CN[C@@H](CC(C)C)C(=O)O; αMeS = C[C@](N)(CO)C(=O)O; Morpholide = C1CN(*)CCO1; Ac5c = NC1(C(=O)O)CCCC1; Aze = O=C(O)[C@@H]1CCN1; Sar = CNCC(=O)O; Allyl = C=CC*
What was measured:
HRAS wild-type protein = HRAS wild-type protein (Homo sapiens, UniProt P01112); assay: Binding to HRAS by surface plasmon resonance (SPR), KD and KD ratio to KRAS
Outline: (§1)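 GDP-loaded biotinylated Avi-tag RAS proteins (E. coli-expressed) captured on a Biotin CAPture chip at ~100–300 RU; single-cycle kinetics at 30°C, 100 µL/min, 75 s injections of rising compound concentrations. HBS pH 7.4 running buffer with 1 mM DTT, 10 mM MgCl2, 10 µM GDP, 4% DMSO. KD from 1:1 binding fit.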

[1] = target: GDP-bound NRAS wild-type protein (Homo sapiens, UniProt P01111); assay: Binding to NRAS by surface plasmon resonance (SPR), KD and KD ratio to KRAS
Outline: as §1

[2] = target: GDP-bound KRAS wild-type protein (Homo sapiens, UniProt P01116); assay: Binding to KRAS by surface plasmon resonance (SPR), dissociation constant KD
Outline: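 Affinity is measured by surface plasmon resonance at 30°C against captured, GDP-loaded RAS carrying a biotinylated Avi tag. Compounds are titrated by single-cycle kinetics, and KD comes from a 1:1 fit.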

[3] = test system: human lung cancer strain NCI-H441; assay type: cell-based
Outline: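 Readout: […] after the ATP-based reagent. Compound: serial dilutions in dimethyl sulfoxide.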

[4] = ratio of the KD value with respect to HRAS wild-type protein to the KD value with respect to KRAS
[5] = ratio of the KD value with respect to GDP-bound NRAS wild-type protein to the KD value with respect to KRAS
[6] = Single Cycle Kinetics, 1:1 binding model
[7] = ratio of KD for HRAS wild-type protein to KD for KRAS
[8] = ratio of KD for GDP-bound NRAS wild-type protein to KD for KRAS

GDP-bound NRAS wild-type protein, sequence (P01111 whole entry): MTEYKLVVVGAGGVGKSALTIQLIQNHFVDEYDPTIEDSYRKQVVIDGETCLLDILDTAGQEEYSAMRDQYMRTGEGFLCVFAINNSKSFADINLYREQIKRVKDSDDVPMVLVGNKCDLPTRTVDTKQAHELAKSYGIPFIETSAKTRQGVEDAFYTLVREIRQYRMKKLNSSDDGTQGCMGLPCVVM
GDP-bound KRAS wild-type protein, sequence (P01116 1-188 isoform P01116-2): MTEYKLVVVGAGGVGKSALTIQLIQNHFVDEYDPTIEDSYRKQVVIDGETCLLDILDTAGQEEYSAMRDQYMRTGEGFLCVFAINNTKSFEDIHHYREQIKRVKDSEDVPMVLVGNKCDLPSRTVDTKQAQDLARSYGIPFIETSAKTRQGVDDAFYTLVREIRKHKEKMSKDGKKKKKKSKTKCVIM
HRAS wild-type protein, sequence (P01112 whole entry): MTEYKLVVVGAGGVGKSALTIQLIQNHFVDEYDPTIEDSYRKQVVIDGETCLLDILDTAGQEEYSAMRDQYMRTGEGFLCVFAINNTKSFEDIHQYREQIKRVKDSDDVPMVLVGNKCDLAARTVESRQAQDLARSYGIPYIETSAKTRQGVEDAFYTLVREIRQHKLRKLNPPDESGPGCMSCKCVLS

Row | Kd [2, 6] | IC50 [3] | Kd ([2]; Single Cycle Kinetics) | Kd ([2]; 1:1 binding model) | SMILES | HRAS /KRAS (HRAS wild-type protein; [4]) | NRAS /KRAS [1, 5] | HRAS /KRAS (HRAS wild-type protein; [7]) | NRAS /KRAS [1, 8] | HRAS /KRAS (HRAS wild-type protein; ratio of KD value for HRAS wild-type protein to KD value for KRAS (SPR)) | NRAS /KRAS ([1]; ratio of KD value for GDP-bound NRAS wild-type protein to KD value for KRAS (SPR))
1 | 0.49 nM | 20 nM | – | – | CCO[C@@H]1C[C@H]2C(=O)NC3(CC(C)(C)C3)C(=O)N(C)[C@@H](C(CC)CC)C(=O)N(C)[C@H](C(=O)N(C)C)CC(=O)N(C)[C@@H](C(C)C)C(=O)N[C@@H]([C@@H](C)CC)C(=O)N(C)CC(=O)N(C)[C@H]3C/C=C\CCN(C3=O)[C@@H](Cc3ccc(C)cc3)C(=O)N(C)CC(=O)N[C@@H](CCc3cc(F)c(C(F)(F)F)c(F)c3)C(=O)N2C1 [PP2153] | A (a compound having 10 or more and less than 20 is denoted as A) | A (a compound having 10 or more and less than 20 is denoted as A) | – | – | – | –
2 | – | 114 nM | 1.1 nM | – | CC[C@H](C)[C@@H]1NC(=O)[C@H](CC(C)C)N(C)C(=O)C[C@@H](C(=O)N2CCOCC2)N(C)C(=O)[C@H](C2CCCC2)N(C)C(=O)C2(CCC2)NC(=O)[C@@H]2C[C@@H](OCC3CC3)CN2C(=O)[C@H](CCc2cc(F)c(C(F)(F)F)c(F)c2)NC(=O)CN(C)C(=O)[C@H](Cc2ccc(C(F)(F)F)cc2)N2CCCC[C@@H](C2=O)N(C)C(=O)CN(C)C1=O [PP1014] | – | – | C (A compound having a KD ratio of 0.1 or more and less than 3 is denoted as C) | C (A compound having a KD ratio of 0.1 or more and less than 3 is denoted as C) | – | –
3 | 2.3 nM | 135 nM | – | – | CCO[C@@H]1C[C@H]2C(=O)NC3(CCC3)C(=O)N(C)[C@@H](C3CCCC3)C(=O)N(C)[C@H](C)CC(=O)N(C)[C@@H](CC(C)C)C(=O)N[C@@H]([C@@H](C)CC)C(=O)N(C)CC(=O)N(C)[C@H]3C/C=C\CCN(C3=O)[C@@H](Cc3ccc(F)cc3C)C(=O)N(C)CC(=O)N[C@@H](CCc3cc(F)c(C(F)(F)F)c(F)c3)C(=O)N2C1 [PP1493] | – | – | – | – | B (a compound having 3 or more and less than 10 is denoted as B) | B (a compound having 3 or more and less than 10 is denoted as B)
4 | – | 8.7 nM | – | 0.34 nM | CCO[C@@H]1C[C@H]2C(=O)NC3(CCC3)C(=O)N(C)[C@@H](C(CC)CC)C(=O)N(C)[C@H](C(=O)N(C)C)CC(=O)N(C)[C@H]3CCCC/C=C/c4ccc(cc4)C[C@@H](C(=O)N(C)CC(=O)N[C@@H](CCc4ccc(Cl)c(Cl)c4)C(=O)N2C1)N1CC/C=C\C[C@@H](C1=O)N(C)C(=O)CN(C1CC1)C(=O)[C@H]([C@@H](C)CC)NC3=O [PP2605] | – | – | A (a compound having 10 or more and less than 20 is denoted as A) | AA (a compound having 20 or more is denoted as AA) | – | –
5 | – | 17.6 nM | 0.19 nM | – | CCO[C@@H]1C[C@H]2C(=O)NC3(CCC3)C(=O)N(C)[C@@H](C3CCCC3)C(=O)N(C)[C@H](C)CC(=O)N(C)[C@@H](CC(C)C)C(=O)N[C@@H]([C@@H](C)CC)C(=O)N(C)CC(=O)N(C)[C@H]3C/C=C\CCN(C3=O)[C@@H](Cc3ccc(C(F)(F)F)cc3)C(=O)N(C)CC(=O)N[C@@H](CCc3cc(F)c(C(F)(F)F)c(F)c3)C(=O)N2C1 [PP1100] | – | – | B (a compound having 3 or more and less than 10 is denoted as B) | B (a compound having 3 or more and less than 10 is denoted as B) | – | –
6 | – | 41 nM | – | 0.66 nM | CCO[C@@H]1C[C@H]2C(=O)NC3(CC(C)(C)C3)C(=O)N(C)[C@@H](C3CCCC3)C(=O)N(C)[C@H](C(=O)N(C)CC)CC(=O)N(C)[C@@H](CC(C)C)C(=O)N[C@@H]([C@@H](C)CC)C(=O)N(C)CC(=O)N(C)[C@H]3C/C=C\CCN(C3=O)[C@@H](Cc3ccc(C(F)F)cc3)C(=O)N(C)CC(=O)N[C@@H](CCc3cc(F)c(CC)c(OC)c3)C(=O)N2C1 [PP3143] | – | – | A (a compound having 10 or more and less than 20 is denoted as A) | A (a compound having 10 or more and less than 20 is denoted as A) | – | –
7 | – | 142 nM | – | 1.2 nM | CCCN1C(=O)CN(C)C(=O)[C@@H]2CCN2C(=O)[C@H](C2CCCC2)NC(=O)[C@H](CC(C)C)N(C)C(=O)C[C@@H](C(=O)N2CCOCC2)N(C)C(=O)[C@H](C2CCCC2)N(C)C(=O)C2(CCCC2)NC(=O)[C@@H]2CCCN2C(=O)[C@H](CCc2ccc(C(F)(F)F)c(Cl)c2)NC(=O)CN(C)C(=O)[C@@H]1Cc1ccc(C(F)(F)F)cc1 [PP0306] ([NMeL][Gly(cPent)][Aze][Sar][NPrPhe(4-CF3)][Sar][hPhe(3-Cl-4-CF3)]P[Ac5c][NMeGly(cPent)][NMeD]-Morpholide; lactam N-11) | – | – | B (a compound having 3 or more and less than 10 is denoted as B) | B (a compound having 3 or more and less than 10 is denoted as B) | – | –
8 | – | 76.6 nM | – | 0.87 nM | CCO[C@@H]1C[C@H]2C(=O)NC3(CC(C)(C)C3)C(=O)N(C)[C@@H](C3CCCC3)C(=O)N(C)[C@H](C(=O)N(C)CC)CC(=O)N(C)[C@@H]([C@@H](C)OC)C(=O)N[C@@H]([C@@H](C)CC)C(=O)N(C3CC3)CC(=O)N(C)[C@H]3C/C=C\CCN(C3=O)[C@@H](Cc3ccc(C)cc3)C(=O)N(C)CC(=O)N[C@@H](CCc3ccc(C(F)(F)F)c(OC)c3)C(=O)N2C1 [PP3182] | – | – | A (a compound having 10 or more and less than 20 is denoted as A) | A (a compound having 10 or more and less than 20 is denoted as A) | – | –
9 | – | 195 nM | 2 nM | – | CCCCO[C@H]1CCN2C(=O)[C@H](CCc3cc(F)c(C(F)(F)F)c(F)c3)NC(=O)CN(C)C(=O)[C@H](Cc3ccc(C(F)(F)F)cc3)N3CCCCC[C@@H](C3=O)N(C)C(=O)CN(C)C(=O)[C@H]([C@@H](C)CC)NC(=O)[C@H](CC(C)C)N(C)C(=O)C[C@@H](C(=O)N3CCOCC3)N(C)C(=O)[C@H](C3CCCC3)N(C)C(=O)C3(CCC3)NC(=O)[C@H]12 [PP1009] | – | – | B (a compound having 3 or more and less than 10 is denoted as B) | B (a compound having 3 or more and less than 10 is denoted as B) | – | –
10 | – | 364 nM | 5.1 nM | – | CCCN1C(=O)CN(C)C(=O)[C@@H]2CCN2C(=O)[C@H]([C@@H](C)CC)NC(=O)[C@H](CC(C)C)N(C)C(=O)C[C@@H](C(=O)N2CCOCC2)N(C)C(=O)[C@H](C2CCCC2)N(C)C(=O)[C@](C)(COC)NC(=O)[C@@H]2CCCN2C(=O)[C@H](CCc2cc(F)c(C(F)(F)F)c(F)c2)NC(=O)CN(C)C(=O)[C@@H]1Cc1ccc(C(F)(F)F)cc1 [PP0779] ([NMeL]I[Aze][Sar][NPrPhe(4-CF3)][Sar][hPhe(3,5-F2-4-CF3)]P[αMeS](Me)[NMeGly(cPent)][NMeD]-Morpholide; lactam N-11) | – | – | B (a compound having 3 or more and less than 10 is denoted as B) | B (a compound having 3 or more and less than 10 is denoted as B) | – | –
11 | 0.031 nM | 1.6 nM | – | – | CCCOC[C@H]1C(=O)N[C@@H]([C@@H](C)CC)C(=O)N(C)CC(=O)N(C)[C@H]2C/C=C\CCN(C2=O)[C@@H](Cc2ccc(C)cc2)C(=O)N(C)CC(=O)N[C@@H](CCc2ccc(C(F)(F)F)c(OC)c2)C(=O)N2C[C@H](OCC)C[C@H]2C(=O)N(C)C2(CCC2)C(=O)N(C)[C@@H](C2CCCC2)C(=O)N(C)[C@H](C(=O)N(C)C)CC(=O)N1C [PP2326] | B (a compound having 3 or more and less than 10 is denoted as B) | A (a compound having 10 or more and less than 20 is denoted as A) | – | – | – | –
12 | – | 23 nM | – | 0.46 nM | CCC(CC)[C@H]1C(=O)N(C)[C@H](C(=O)N(C)C)CC(=O)N(C)[C@@H](COC)C(=O)N[C@@H]([C@@H](C)CC)C(=O)N(C)CC(=O)N(C)[C@H]2C/C=C\CCN(C2=O)[C@@H](Cc2ccc(C)cc2)C(=O)N(C)CC(=O)N[C@@H](CCc2ccc(C(F)(F)F)c(OC)c2)C(=O)N2CCCCC[C@H]2C(=O)NC2(CC(C)(C)C2)C(=O)N1C [PP2970] | – | – | A (a compound having 10 or more and less than 20 is denoted as A) | A (a compound having 10 or more and less than 20 is denoted as A) | – | –
13 | 0.2 nM | 41.4 nM | – | – | CCCOC[C@H]1C(=O)N[C@@H]([C@@H](C)CC)C(=O)N(C)CC(=O)N(C)[C@H]2C/C=C\CCN(C2=O)[C@@H](Cc2ccc(C)cc2)C(=O)N(C)CC(=O)N[C@@H](CCc2cc(F)c(C(F)(F)F)c(F)c2)C(=O)N2C[C@H](C)C[C@H]2C(=O)NC2(CCCC2)C(=O)N(C)[C@@H](C2CCCC2)C(=O)N(C)[C@H](C(=O)N(C)C)CC(=O)N1C [PP2225] | A (a compound having 10 or more and less than 20 is denoted as A) | A (a compound having 10 or more and less than 20 is denoted as A) | – | – | – | –
14 | – | 527 nM | 7.8 nM | – | C=CCOC[C@]1(C)NC(=O)[C@@H]2CCCN2C(=O)[C@H](CCc2cc(F)c(C(F)(F)F)c(F)c2)NC(=O)CN(C)C(=O)[C@H](Cc2ccc(C(F)(F)F)cc2)N(CCC)C(=O)CN(C)C(=O)[C@@H]2CCN2C(=O)[C@H]([C@@H](C)CC)NC(=O)[C@H](CC(C)C)N(C)C(=O)C[C@@H](C(=O)N2CCOCC2)N(C)C(=O)[C@H](C2CCCC2)N(C)C1=O [PP0780] ([NMeL]I[Aze][Sar][NPrPhe(4-CF3)][Sar][hPhe(3,5-F2-4-CF3)]P[αMeS](Allyl)[NMeGly(cPent)][NMeD]-Morpholide; lactam N-11) | – | – | B (a compound having 3 or more and less than 10 is denoted as B) | B (a compound having 3 or more and less than 10 is denoted as B) | – | –
